The record followed here is US20090241205A1, “METHOD FOR IDENTIFYING CRMP MODULATORS” (priority 2006, published 2009).

Test [1] relates to neural derivates of murine embryonal stem cells. Nature of the test: NMDA excitotoxic insult, survival of neural derivates of murine embryonal stem cells (calcium imaging). Type of test: cell-based. The note with it: 200 μM NMDA; for survival rate after excitotoxic insult: 100 μM compound, NMDA alone 15.6% (16%).
In another test the target is T1, CRMP-2 (Rattus norvegicus, UniProt P47942).
T1 construct: from tissue; host or cells: rat brain (extract/fractions)
Kind of test: biological pull-down (Affinity Fishhook) with biotinylated affinity reagents in rat brain. Format: binding. As to conditions: biotinyl affinity reagent. Here is the method: Biological pull-down experiments (“Affinity Fishhook”) were performed by incubating a set of four Lacosamide-related affinity-reagents with biotinyl-moieties (R)—N-Benzyl-2-acetamido-6-[Nε-(biotinyl)-2-isothiocynato-6-aminohexanamido]-aminohexanamide((R)-7), (S)—N-Benzyl-2-acetamido-6-[Nε-(biotinyl)-2-isothiocynato-6-aminohexanamido]-aminohexanamide((S)-7), (R)—N-{3-[Nε-(biotinyl)-2-isothiocynato-6-aminohexanamide]-benzyl}-2-acetamido-3-methoxypropion-amide((R)-34) and (R)—N-{4-[Nε-(biotinyl)-2-isothiocynato-6-aminohexanamide]-benzyl}-2-acetamido-3-methoxypropion-amide((R)-35) to rat brain.
(a) The pattern of affinity captured proteins is completely different from raw extracts and controls and the protein is consistently captured under a variety of conditions.

In the next test the target is T2, human CRMP-2 (Homo sapiens, UniProt Q16555).
T2 construct: expressed in transfected cells; host or cells: Xenopus oocytes (crude membranes)
Nature of the test: competition protein binding with [14C]-labeled lacosamide, crude membranes from CRMP-2 transfected Xenopus oocytes. Here is the method: It was therefore the object of the present invention to provide a method of identifying compounds suitable for the prevention, alleviation or/and treatment of diseases or conditions which can be treated by Lacosamide, based on the mode of action of Lacosamide. […] The binding was confirmed in experiments employing heterologously expressed human CRMP-2 in Xenopus oocytes.
Based on the results of the previous study, the present binding curve ranged from 1 to 100 μM (10 concentrations, in triplicates).

For test [2], the system named is hippocampal primary cells. Kind of test: axon growth in hippocampal primary cells (Tau-1 immunofluorescence). Type of test: cell-based. The note with it: for BDNF-induced axonal growth: 200 ng/ml BDNF. Here is the method:
It could be shown that the neurotrophins NT3 and BDNF stimulate axonal outgrowth in a primary culture of embryonal hippocampal neurons. Quantification of neurite outgrowth was performed by immunofluorescence microscopy employing an antibody against the axonal marker protein Tau-1.

“Also recorded” adds a separate entry of the source.

In the case of `COC[C@H](NC(C)=O)C(=O)NCc1ccccc1` (single isomer, unassigned) [S-enantiomer of lacosamide], the “survival rate after excitotoxic insult” value in test [1] (listed as S-enantiomer) was “only a minor effect”.

As for `COC[C@@H](NC(C)=O)C(=O)NCc1ccc(NC(=O)C(CCCCNC(=O)CCCCC2SCC3NC(=O)NC32)N=C=S)cc1` (stereo partly drawn) [(R)-35, (R)—N-{4-[Nε-(biotinyl)-2-isothiocynato-6-aminohexanamide]-benzyl}-2-acetamido-3-methoxypropion-amide], at CRMP-2, the “proteins captured in pull-down” value was “enrichment of an overlapping set of proteins, including collapsing response mediator protein (CRMP-2)”.

For the compound `CC(=O)N[C@H](CCCCNC(=O)C(CCCCNC(=O)CCCC[C@@H]1SC[C@@H]2NC(=O)N[C@@H]21)N=C=S)C(=O)NCc1ccccc1` (stereo partly drawn) [(R)-7, (R)—N-Benzyl-2-acetamido-6-[Nε-(biotinyl)-2-isothiocynato-6-aminohexanamido]-aminohexanamide], the “proteins captured in pull-down” value on CRMP-2 was “enrichment of an overlapping set of proteins, including collapsing response mediator protein (CRMP-2)”.

`COC[C@@H](NC(C)=O)C(=O)NCc1cccc(NC(=O)C(CCCCNC(=O)CCCCC2SCC3NC(=O)NC32)N=C=S)c1` (stereo partly drawn) [(R)-34, (R)—N-{3-[Nε-(biotinyl)-2-isothiocynato-6-aminohexanamide]-benzyl}-2-acetamido-3-methoxypropion-amide]: the “proteins captured in pull-down” value at CRMP-2 was “enrichment of an overlapping set of proteins, including collapsing response mediator protein (CRMP-2)”.

Regarding `CC(=O)N[C@@H](CCCCNC(=O)C(CCCCNC(=O)CCCC[C@@H]1SC[C@@H]2NC(=O)N[C@@H]21)N=C=S)C(=O)NCc1ccccc1` (stereo partly drawn) [(S)-7, (S)—N-Benzyl-2-acetamido-6-[Nε-(biotinyl)-2-isothiocynato-6-aminohexanamido]-aminohexanamide], the “proteins captured in pull-down” value on CRMP-2 was “enrichment of an overlapping set of proteins, including collapsing response mediator protein (CRMP-2)”.

What is called Kd is the concentration at which binding is half-saturated. Lower therefore signals tighter binding. `COC[C@@H](NC(C)=O)C(=O)NCc1ccccc1` [Lacosamide, (R)-2-acetamide-N-benzyl-3-methoxypropionamide] returned a Kd on human CRMP-2 below 5 µM. Moreover, on human CRMP-2 ([14C]-lacosamide, binding curve 1 to 100 μM), the Bmax result is given as “about 200 pM/mg”. Moreover, at human CRMP-2 (crude membranes from CRMP-2 transfected Xenopus oocytes, 1 to 100 μM), the specific binding result was “competitive and specific binding was observed”. Further, the NT3-induced axonal growth entry in test [2] (50 ng/ml NT3, 100 μM Lacosamide) is reported as “significantly decreases”. In addition, the BDNF-induced axonal growth entry in test [2] (1 μM Lacosamide) and in test [2] (100 μM Lacosamide) was “significantly decreases” throughout. In addition, in test [2] (Lacosamide 1-200 μM, no neurotrophin), the “basal axonal outgrowth (axon length)” value is given as “does not significantly change; also recorded: did not significantly change”. Moreover, in test [2] (concentration not stated in text (FIG. 2)), the NT3-induced neuronal outgrowth result was “attenuated”. Moreover, in test [2] (concentration not stated in text (FIG. 3)), the BDNF-induced neuronal outgrowth entry is given as “attenuated”. Further, the “survival rate after excitotoxic insult” value in test [1] came to 71%. In test [1] (CRMP-2 siRNA pre-incubation), the “neuroprotective effect after pre-incubation with CRMP-2 siRNA” value is “diminished”.
